Results on two compounds are retold here after PubChem BioAssay (NCI).

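Tested at 5 concentrations; 48 h exposure; 96-well plates; endpoints linearly interpolated, else capped at highest concentration. TGI: concentration producing complete growth inhibition.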

Test systems include DLD-1 colon; DMS 114 small cell lung; DMS 273 small cell lung; HOP-18 NSCLC; KM20L2 colon; LXFL 529 NSCLC; M19-MEL melanoma; MALME-3M melanoma; NCI-H23 lung; OVCAR-4 ovarian; RXF-631 renal; SK-MEL-28 melanoma; SNB-78 CNS; XF 498 CNS.
Holding throughout (experiment): DTP human tumour cell line panel, 48 h

As to `CN(C)CC1(Cc2ccccc2)CC/C(=C\c2ccccc2)C1=O` (stereo not drawn), the concentration for total growth inhibition (TGI) is over 100 µM with DLD-1 colon; 80.1 µM in the test with DMS 114 small cell lung; over 100 µM with DMS 273 small cell lung; over 100 µM in the test on HOP-18 NSCLC; 35 µM with KM20L2 colon; over 100 µM with LXFL 529 NSCLC. Also, the concentration for total growth inhibition (TGI) is 64.6 µM with M19-MEL melanoma; over 100 µM with MALME-3M melanoma; over 100 µM in the test with NCI-H23 lung; over 100 µM with OVCAR-4 ovarian; 83.7 µM in the test on RXF-631 renal; over 100 µM in the test with SK-MEL-28 melanoma. Besides, the TGI in the test on SNB-78 CNS and with XF 498 CNS was over 100 µM throughout.
Regarding `CN1CCCS/C1=C1/SC(=S)N(c2ccccc2)C1=O`, the TGI in the test on DLD-1 colon, with DMS 114 small cell lung, in the test on DMS 273 small cell lung, with HOP-18 NSCLC, in the test with KM20L2 colon and in the test with LXFL 529 NSCLC was over 100 µM each time. The TGI in the test with M19-MEL melanoma, with MALME-3M melanoma, in the test on NCI-H23 lung, in the test on OVCAR-4 ovarian, in the test on RXF-631 renal and in the test on SK-MEL-28 melanoma was over 100 µM each time. The concentration for total growth inhibition (TGI) in the test with SNB-78 CNS and with XF 498 CNS was over 100 µM each time.
